Experimental data reported in paper PMC6785188 (ACS chemical neuroscience, 2019).
pEC50, pKi: −log10 of the molar value.

Columns and labels:
D1R [1] = conditions: Tango assay, ref 73 (Wang et al.), cited from earlier work
D1R [2] = assay: Bias calculation; assay type: cell-based, human; conditions: relative to dopamine; ΔΔlog(τ/KA), GS-cAMP vs β-arrestin2
M2 = molecular target: T1, M2 (Homo sapiens, UniProt P08172); assay: Radioligand binding affinity assay, M2
T1 sequence (P08172 1-466): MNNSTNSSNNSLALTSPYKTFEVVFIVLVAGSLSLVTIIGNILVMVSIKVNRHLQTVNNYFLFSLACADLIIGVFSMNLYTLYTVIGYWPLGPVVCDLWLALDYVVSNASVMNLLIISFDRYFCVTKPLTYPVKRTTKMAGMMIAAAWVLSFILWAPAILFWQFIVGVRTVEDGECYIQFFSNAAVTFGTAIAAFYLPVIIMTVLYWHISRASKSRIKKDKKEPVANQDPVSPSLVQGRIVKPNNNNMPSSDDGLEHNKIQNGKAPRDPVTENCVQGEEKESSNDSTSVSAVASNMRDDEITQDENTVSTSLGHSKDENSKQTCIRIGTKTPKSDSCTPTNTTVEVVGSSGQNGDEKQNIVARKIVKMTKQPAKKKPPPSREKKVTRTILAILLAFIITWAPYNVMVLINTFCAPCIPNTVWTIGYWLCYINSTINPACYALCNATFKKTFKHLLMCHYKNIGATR

6-OHDA-lesioned mice = assay: Motor activity study in 6-OHDA-lesioned mice; assay type: in vivo; conditions: 5 mg/kg i.p., 90 min
H2 = H2 (Homo sapiens, UniProt P25021); assay: Radioligand binding affinity assay, H2
[3] = Mouse pharmacokinetic study; assay type: in vivo; conditions: mice, 50 mg/kg i.p.
M1 = molecular target: T2, M1 (Homo sapiens, UniProt P11229); assay: Radioligand binding affinity assay, M1
T2 sequence (P11229 1-460): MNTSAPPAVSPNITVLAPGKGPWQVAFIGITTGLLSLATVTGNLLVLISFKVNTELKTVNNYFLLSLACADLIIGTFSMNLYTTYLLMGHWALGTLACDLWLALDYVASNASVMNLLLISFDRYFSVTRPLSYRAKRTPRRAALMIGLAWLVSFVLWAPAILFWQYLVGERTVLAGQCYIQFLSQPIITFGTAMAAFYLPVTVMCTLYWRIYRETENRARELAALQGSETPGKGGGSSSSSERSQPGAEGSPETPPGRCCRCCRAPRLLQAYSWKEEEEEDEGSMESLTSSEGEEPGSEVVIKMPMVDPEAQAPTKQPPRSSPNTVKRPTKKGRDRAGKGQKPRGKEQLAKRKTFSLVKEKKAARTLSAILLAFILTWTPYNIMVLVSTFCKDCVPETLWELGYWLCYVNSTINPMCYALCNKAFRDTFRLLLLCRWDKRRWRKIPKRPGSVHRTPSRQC

M3 = M3 (Homo sapiens, UniProt P20309); assay: Radioligand binding affinity assay, M3
5-HT2A = 5-HT2A (Homo sapiens, UniProt P28223); assay: Radioligand binding affinity assay, 5-HT2A
KOR = KOR (Homo sapiens, UniProt P41145); assay: Radioligand binding affinity assay, KOR
5-HT6 = 5-HT6 (Homo sapiens, UniProt P50406); assay: Radioligand binding affinity assay, 5-HT6
5-HT3 = molecular target: T3, 5-HT3 (Homo sapiens, UniProt P46098); assay: Radioligand binding affinity assay, 5-HT3
T3 sequence (P46098 24-478): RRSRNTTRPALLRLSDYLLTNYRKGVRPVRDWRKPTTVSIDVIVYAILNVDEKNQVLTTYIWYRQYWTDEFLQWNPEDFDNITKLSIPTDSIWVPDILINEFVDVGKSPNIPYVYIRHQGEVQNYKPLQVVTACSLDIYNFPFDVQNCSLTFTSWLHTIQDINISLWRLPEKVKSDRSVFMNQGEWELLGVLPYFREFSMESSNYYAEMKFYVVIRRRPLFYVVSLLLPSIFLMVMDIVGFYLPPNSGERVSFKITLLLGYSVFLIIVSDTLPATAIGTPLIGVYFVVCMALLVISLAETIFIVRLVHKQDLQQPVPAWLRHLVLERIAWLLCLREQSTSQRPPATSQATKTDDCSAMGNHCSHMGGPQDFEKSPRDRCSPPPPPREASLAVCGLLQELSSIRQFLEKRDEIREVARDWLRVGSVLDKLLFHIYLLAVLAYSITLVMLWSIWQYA

SERT = SERT (Homo sapiens, UniProt P31645); assay: Radioligand binding affinity assay, SERT
Alpha2A = molecular target: T4, Alpha2A (Homo sapiens, UniProt P08913); assay: Radioligand binding affinity assay, Alpha2A
T4 sequence (P08913 1-465): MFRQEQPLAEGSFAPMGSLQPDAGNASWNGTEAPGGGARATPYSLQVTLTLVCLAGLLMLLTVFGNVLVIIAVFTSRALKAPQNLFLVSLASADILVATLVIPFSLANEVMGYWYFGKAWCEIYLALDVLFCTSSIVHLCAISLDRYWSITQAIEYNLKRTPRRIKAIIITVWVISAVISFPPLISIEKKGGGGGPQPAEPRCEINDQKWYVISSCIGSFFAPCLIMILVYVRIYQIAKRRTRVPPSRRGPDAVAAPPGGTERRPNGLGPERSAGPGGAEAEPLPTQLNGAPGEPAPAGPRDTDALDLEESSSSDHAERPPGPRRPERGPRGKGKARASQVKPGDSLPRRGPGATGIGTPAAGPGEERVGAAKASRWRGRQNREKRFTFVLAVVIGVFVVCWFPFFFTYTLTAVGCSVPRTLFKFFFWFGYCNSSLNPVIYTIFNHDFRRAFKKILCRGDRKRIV

5-HT4 = 5-HT4 (Homo sapiens, UniProt Q13639); assay: Radioligand binding affinity assay, 5-HT4
5-HT4, sequence (Q13639 whole entry, species assumed): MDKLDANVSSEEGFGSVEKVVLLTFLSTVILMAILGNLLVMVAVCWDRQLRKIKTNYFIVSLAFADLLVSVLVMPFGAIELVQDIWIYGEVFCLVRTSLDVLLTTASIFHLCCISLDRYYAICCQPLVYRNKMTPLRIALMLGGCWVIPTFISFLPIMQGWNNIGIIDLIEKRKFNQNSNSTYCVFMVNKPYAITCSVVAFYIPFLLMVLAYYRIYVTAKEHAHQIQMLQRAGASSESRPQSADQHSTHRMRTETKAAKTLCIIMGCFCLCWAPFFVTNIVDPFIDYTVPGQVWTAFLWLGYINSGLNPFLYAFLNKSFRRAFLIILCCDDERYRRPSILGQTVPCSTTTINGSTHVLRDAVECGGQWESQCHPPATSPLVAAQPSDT

H2, sequence (P25021 whole entry): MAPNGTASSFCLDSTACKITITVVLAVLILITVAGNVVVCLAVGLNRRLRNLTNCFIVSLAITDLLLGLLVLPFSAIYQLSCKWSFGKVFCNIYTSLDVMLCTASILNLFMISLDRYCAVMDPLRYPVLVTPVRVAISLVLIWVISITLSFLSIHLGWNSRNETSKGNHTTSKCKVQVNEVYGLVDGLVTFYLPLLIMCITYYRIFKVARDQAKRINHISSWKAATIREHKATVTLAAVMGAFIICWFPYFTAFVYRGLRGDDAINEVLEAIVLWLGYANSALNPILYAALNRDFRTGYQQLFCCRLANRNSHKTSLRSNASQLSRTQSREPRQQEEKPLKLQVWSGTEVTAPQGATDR
SERT, sequence (P31645 whole entry, species assumed): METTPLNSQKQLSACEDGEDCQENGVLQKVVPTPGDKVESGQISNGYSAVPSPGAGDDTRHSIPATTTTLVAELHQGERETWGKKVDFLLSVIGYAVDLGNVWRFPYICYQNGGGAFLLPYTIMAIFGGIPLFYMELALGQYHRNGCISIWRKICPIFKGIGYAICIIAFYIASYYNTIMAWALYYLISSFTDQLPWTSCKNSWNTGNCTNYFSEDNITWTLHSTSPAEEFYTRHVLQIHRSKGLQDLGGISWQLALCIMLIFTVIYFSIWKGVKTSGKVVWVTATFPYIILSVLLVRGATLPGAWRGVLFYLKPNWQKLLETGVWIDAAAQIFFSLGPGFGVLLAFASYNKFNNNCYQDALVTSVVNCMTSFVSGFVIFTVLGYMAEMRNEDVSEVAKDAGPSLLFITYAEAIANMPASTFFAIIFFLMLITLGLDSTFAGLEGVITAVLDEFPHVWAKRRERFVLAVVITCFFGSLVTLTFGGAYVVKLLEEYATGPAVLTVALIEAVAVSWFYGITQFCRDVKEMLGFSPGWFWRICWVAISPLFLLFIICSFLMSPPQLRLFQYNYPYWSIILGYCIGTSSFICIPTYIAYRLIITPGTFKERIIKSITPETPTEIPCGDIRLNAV
5-HT6, sequence (P50406 whole entry, species assumed): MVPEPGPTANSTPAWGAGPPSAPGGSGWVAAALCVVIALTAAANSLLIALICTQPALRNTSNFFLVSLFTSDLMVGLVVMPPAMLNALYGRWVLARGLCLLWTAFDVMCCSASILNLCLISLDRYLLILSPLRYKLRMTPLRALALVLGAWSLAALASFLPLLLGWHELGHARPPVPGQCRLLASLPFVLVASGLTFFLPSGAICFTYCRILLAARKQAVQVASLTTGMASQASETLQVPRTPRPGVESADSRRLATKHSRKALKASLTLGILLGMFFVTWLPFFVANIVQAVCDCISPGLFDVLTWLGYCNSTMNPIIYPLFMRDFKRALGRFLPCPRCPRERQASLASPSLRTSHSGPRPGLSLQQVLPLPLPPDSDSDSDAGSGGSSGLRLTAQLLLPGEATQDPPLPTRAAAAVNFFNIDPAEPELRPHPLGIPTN
5-HT2A, sequence (P28223 whole entry, species assumed): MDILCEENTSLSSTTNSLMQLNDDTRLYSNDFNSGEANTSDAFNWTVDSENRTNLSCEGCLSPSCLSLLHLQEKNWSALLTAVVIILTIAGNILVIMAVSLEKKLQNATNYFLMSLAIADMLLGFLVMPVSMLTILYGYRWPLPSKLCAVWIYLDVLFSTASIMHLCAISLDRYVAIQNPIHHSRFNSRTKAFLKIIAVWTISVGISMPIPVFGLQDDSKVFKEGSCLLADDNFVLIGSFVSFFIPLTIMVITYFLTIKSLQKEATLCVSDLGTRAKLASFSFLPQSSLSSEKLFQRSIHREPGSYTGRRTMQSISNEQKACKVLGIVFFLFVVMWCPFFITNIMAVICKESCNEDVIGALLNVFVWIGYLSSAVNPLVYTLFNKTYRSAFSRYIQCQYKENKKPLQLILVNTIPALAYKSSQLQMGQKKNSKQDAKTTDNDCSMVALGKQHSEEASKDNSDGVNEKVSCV
KOR, sequence (P41145 whole entry): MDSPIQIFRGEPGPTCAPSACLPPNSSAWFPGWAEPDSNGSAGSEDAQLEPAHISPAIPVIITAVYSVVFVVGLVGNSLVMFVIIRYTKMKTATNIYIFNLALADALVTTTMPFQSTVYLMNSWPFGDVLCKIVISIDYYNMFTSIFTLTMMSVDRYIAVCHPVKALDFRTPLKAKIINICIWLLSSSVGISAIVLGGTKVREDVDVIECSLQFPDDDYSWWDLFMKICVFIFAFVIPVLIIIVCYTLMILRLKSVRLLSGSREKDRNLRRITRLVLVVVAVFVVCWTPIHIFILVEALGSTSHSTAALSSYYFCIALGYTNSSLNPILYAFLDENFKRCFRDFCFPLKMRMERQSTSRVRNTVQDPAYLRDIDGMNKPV
M3, sequence (P20309 whole entry): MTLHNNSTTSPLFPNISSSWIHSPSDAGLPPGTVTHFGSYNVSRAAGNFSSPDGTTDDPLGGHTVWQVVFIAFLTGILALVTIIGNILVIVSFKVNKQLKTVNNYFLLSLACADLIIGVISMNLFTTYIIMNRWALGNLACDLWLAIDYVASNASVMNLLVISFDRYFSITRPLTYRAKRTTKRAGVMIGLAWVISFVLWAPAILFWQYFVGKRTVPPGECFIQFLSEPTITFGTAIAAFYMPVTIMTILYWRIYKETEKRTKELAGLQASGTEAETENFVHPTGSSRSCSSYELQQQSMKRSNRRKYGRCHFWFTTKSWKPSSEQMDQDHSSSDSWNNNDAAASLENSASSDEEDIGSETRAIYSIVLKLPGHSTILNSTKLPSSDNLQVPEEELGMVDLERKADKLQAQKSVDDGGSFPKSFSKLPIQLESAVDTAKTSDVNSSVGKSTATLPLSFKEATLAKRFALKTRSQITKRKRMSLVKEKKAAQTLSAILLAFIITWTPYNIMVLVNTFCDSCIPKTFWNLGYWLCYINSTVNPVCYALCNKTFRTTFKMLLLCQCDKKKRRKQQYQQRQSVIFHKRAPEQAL

SMILES	pKi (M2)	pKi (H2)	BBB penetrance [3]	tolerability / adverse clinical signs [3]	pKi (M1)	pKi (M3)	pKi (5-HT2A)	pKi (KOR)	pKi (5-HT6)	pKi (5-HT3)	pKi (SERT)	pKi (Alpha2A)	pKi (5-HT4)	further results
Cc1cc(Oc2nccc3occc23)ccc1-c1c(C)c(=O)[nH]c(=O)n1C [Compound 10, 6-(4-(Furo[3,2-c]pyridin-4-yloxy)-2-methylphenyl)-1,5-dimethylpyrimidine-2,4(1H,3H)-dione]	< 5.00	< 5.00	good BBB penetrance	well-tolerated	< 5.00	< 5.00	< 5.00	< 5.00	< 5.00	< 5.00	< 5.00	< 5.00	< 5.00	β-arrestin2 recruitment EMAX (D1R [1]): 86%; pEC50 (D1R [1]; read-out: β-arrestin2 recruitment EC50): 7.46; bias factor for β-arrestin2 (D1R [2]): 1.8; forward locomotion at each time interval and total distance traveled vs vehicle (6-OHDA-lesioned mice): statistically significant increases; number of contralateral rotations vs vehicle (6-OHDA-lesioned mice): significant increases
Cc1cc(Oc2nccc3occc23)ccc1-c1c(C)c(=O)[nH]c(=O)n1C1CC1 [Compound 18, 1-Cyclopropyl-6-(4-(furo[3,2-c]pyridin-4-yloxy)-2-methylphenyl)-5-methylpyrimidine-2,4(1H,3H)-dione]		< 5.00			< 5.00	< 5.00	< 5.00	< 5.00	< 5.00	< 5.00	< 5.00	< 5.00	< 5.00	
COc1ccnc(Oc2ccc(-c3c(C)c(=O)[nH]c(=O)n3C)c(C)c2)c1C(F)(F)F [Compound 35, 6-(4-((4-Methoxy-3-(trifluoromethyl)pyridin-2-yl)oxy)-2-methylphenyl)-1,5-dimethylpyrimidine-2,4(1H,3H)-dione]		< 5.00	good BBB penetrance	well-tolerated	< 5.00	< 5.00	< 5.00	< 5.00	< 5.00	< 5.00	< 5.00		< 5.00	time stable levels are maintained in the brain and plasma after administration [3]: at least 4 hours; peak concentration in the brain ([3]; sampled 0.5, 1.5, 4.0 h): ~100 µM; peak concentration in the plasma ([3]; sampled 0.5, 1.5, 4.0 h): ~100 µM
Cc1cc2c(Oc3ccc(-c4c(C)c(=O)[nH]c(=O)n4C)c(C)c3)nccc2o1 [Compound 36, 1,5-Dimethyl-6-(2-methyl-4-((2-methylfuro[3,2-c]pyridin-4-yl)-oxy)phenyl)pyrimidine-2,4(1H,3H)-dione]	< 5.00	< 5.00			< 5.00	< 5.00	< 5.00	< 5.00	< 5.00	< 5.00	< 5.00	< 5.00	< 5.00	
Cc1cc(Oc2nccc3c2ccn3C)ccc1-c1c(C)c(=O)[nH]c(=O)n1C [Compound 37, 1,5-Dimethyl-6-(2-methyl-4-((1-methyl-1H-pyrrolo[3,2-c]pyridin-4-yl)oxy)phenyl)pyrimidine-2,4(1H,3H)-dione]	< 5.00	< 5.00			< 5.00		< 5.00	< 5.00	< 5.00	< 5.00	< 5.00	< 5.00	< 5.00	
Cc1cc(Oc2nccc3ccsc23)ccc1-c1c(C)c(=O)[nH]c(=O)n1C [Compound 40, 1,5-Dimethyl-6-(2-methyl-4-(thieno[2,3-c]pyridin-7-yloxy)-phenyl)pyrimidine-2,4(1H,3H)-dione]	< 5.00	< 5.00			< 5.00		< 5.00	< 5.00	< 5.00	< 5.00	< 5.00	< 5.00	< 5.00	
